Some test systems named below: DLD-1; TK-10; DMS-114; HOP-18; SNB-78; M19-MEL; LOX IMVI; SK-MEL-5; DMS-273; XF498; SN12C; KM-20L2; M14; ACHN; A498; Malme-3M; NCI/ADR-RES; COLO 205; PC-3; BT-549.
Assay in all cases: DTP human tumour cell line panel, 48 h

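Values below derive from 48-hour exposures of cells grown in 96-well plates, with endpoints linearly interpolated between the two concentrations bracketing the appropriate inhibition level. The concentration for 50% growth inhibition is given as GI50.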 Active and inactive are the calls of the source. Cut-off read from the data, not from the text of the source: active = GI50 up to about 1.1 µM and inactive = higher.

As to `COc1ccc(/C(C=O)=C(\Cl)c2ccc(OC)c(OC)c2)cc1`, the GI50 was 15.6 µM (inactive) in the assay on DLD-1; > 100 µM (inactive) with TK-10; 81.3 µM (inactive) in the assay with DMS-114; > 100 µM (inactive) in the assay with HOP-18; 23 µM (inactive) with SNB-78; > 100 µM (inactive) with M19-MEL. The GI50 in the assay with LOX IMVI was > 100 µM (inactive); in the assay on SK-MEL-5, > 100 µM (inactive); with DMS-273 it was 49.2 µM (inactive); in the assay with XF498 it was 15.4 µM (inactive); in the assay on SN12C it was > 100 µM (inactive); in the assay on KM-20L2, > 100 µM (inactive). Further, the GI50 was > 100 µM (inactive) in the assay with M14, > 100 µM (inactive) in the assay on ACHN, 18.4 µM (inactive) in the assay with A498 and > 100 µM (inactive) in the assay on Malme-3M.

For `COc1ccc(C2C3CCCC(C3=O)C(c3ccc(OC)cc3)N2N=O)cc1` (stereo unspecified), the GI50 with DLD-1 was 33.9 µM (inactive); in the assay with NCI/ADR-RES it was 32.4 µM (inactive); in the assay on DMS-114, 23.1 µM (inactive); in the assay with HOP-18, 8.91 µM (inactive); with SNB-78 it was > 66.4 µM (inactive); in the assay with M19-MEL, 32.4 µM (inactive). The GI50 in the assay with LOX IMVI was 18 µM (inactive); in the assay with COLO 205 it was 20.1 µM (inactive); in the assay on SK-MEL-5, 17.7 µM (inactive); with DMS-273, 23 µM (inactive); with XF498, 33.7 µM (inactive); with SN12C, 18.5 µM (inactive). Also, the GI50 with KM-20L2 was 30.7 µM (inactive); with A498 it was 15.2 µM (inactive); in the assay on Malme-3M it was 7.85 µM (inactive).

Consider `COc1ccc2[nH]cc(/C=C(/C)c3ccncc3)c2c1`, for which the GI50 in the assay with DLD-1 was 4.52 µM (inactive); in the assay with NCI/ADR-RES it was 2.94 µM (inactive); in the assay on DMS-114, 2.62 µM (inactive); in the assay on HOP-18 it was > 100 µM (inactive); in the assay on M19-MEL it was 3.72 µM (inactive); in the assay on LOX IMVI, 6.28 µM (inactive). Moreover, the GI50 in the assay on COLO 205 is 3.1 µM (inactive); in the assay with SK-MEL-5 it was 3.1 µM (inactive); with DMS-273, 1.57 µM (inactive); in the assay on XF498, 10.7 µM (inactive); with SN12C, 8.59 µM (inactive); in the assay on A498, 5.07 µM (inactive).

Take `COC1/C=C\C=C(/C)C(=O)NC2=CC(=O)C=C(C2=O)C(OC)C(C)CC(OC)C(OC)C(C)/C=C(/C)C1OC(N)=O` (stereo unspecified): the GI50 in the assay with DLD-1 is 1.59 µM (inactive); in the assay with NCI/ADR-RES it was 5.73 µM (inactive); in the assay with DMS-114 it was 1.12 µM (inactive); with HOP-18, 0.29 µM (active); with SNB-78, 2.14 µM (inactive); with M19-MEL it was 2.2 µM (inactive). Moreover, the GI50 was 3.19 µM (inactive) in the assay on LOX IMVI; 0.084 µM (active) with COLO 205; 4.35 µM (inactive) in the assay with SK-MEL-5; 12 µM (inactive) in the assay with DMS-273; 1.87 µM (inactive) in the assay with XF498; 5.25 µM (inactive) in the assay on SN12C. Moreover, the GI50 in the assay with KM-20L2 is 3.2 µM (inactive); with A498 it was 15.1 µM (inactive); in the assay with Malme-3M, 0.189 µM (active).

As to `C#CCCCC(=C)C[C@H](OCc1ccccc1)[C@H]1OC(=O)[C@@H]1C`, the GI50 in the assay on TK-10 is > 100 µM (inactive); with NCI/ADR-RES, 40.9 µM (inactive); in the assay on PC-3, 48.2 µM (inactive); in the assay with SN12C, > 100 µM (inactive); with BT-549 it was > 100 µM (inactive); with M14 it was 81.3 µM (inactive). The results for the GI50 in the assay on ACHN and with A498 were 72.6 µM (inactive) and > 100 µM (inactive), respectively.

Regarding `Nc1ccc(OCC(O)N2C(=O)c3ccccc3C2=O)cc1` (stereo unspecified), the GI50 in the assay on TK-10, in the assay on NCI/ADR-RES, in the assay with LOX IMVI, with PC-3, with COLO 205 and with SK-MEL-5 was > 100 µM (inactive) each time. The GI50 in the assay on M14, with ACHN and with Malme-3M was > 100 µM (inactive) in each case.

On to `O=C1/C(=C/c2ccc(Cl)cc2)N=C(c2ccccc2)N1/N=C/c1ccccc1O`, for which the GI50 is 1.68 µM (inactive) in the assay on TK-10; 18.2 µM (inactive) with NCI/ADR-RES; 13.2 µM (inactive) in the assay on LOX IMVI; 10.3 µM (inactive) with PC-3; 16.3 µM (inactive) in the assay with COLO 205; 15.1 µM (inactive) with SK-MEL-5. Moreover, the GI50 is 23.4 µM (inactive) in the assay on SN12C; 16.4 µM (inactive) in the assay on BT-549; 2.84 µM (inactive) in the assay with M14; 5.05 µM (inactive) in the assay with ACHN; 1.98 µM (inactive) with Malme-3M.

For the molecule `CSCC[C@@H]1C(=O)N(C)[C@H](C(C)(C)C)N1C(=O)c1ccccc1`, the GI50 with DLD-1, in the assay with NCI/ADR-RES, in the assay on DMS-114, with HOP-18, in the assay with SNB-78 and in the assay with M19-MEL was > 100 µM (inactive) in each case. Further, the GI50 with LOX IMVI, in the assay on COLO 205, with SK-MEL-5, with DMS-273, with XF498 and in the assay on SN12C was > 100 µM (inactive) throughout. In addition, the GI50 in the assay on KM-20L2, in the assay on A498 and with Malme-3M was > 100 µM (inactive) each time.

For `CCCSCC(P(=O)(O)O)P(=O)(O)O.NC1CCCCC1`, the GI50 with DLD-1, in the assay on NCI/ADR-RES, with DMS-114, in the assay with HOP-18, in the assay on SNB-78 and with M19-MEL was > 100 µM (inactive) in each case. Further, the GI50 in the assay with LOX IMVI, in the assay on COLO 205, in the assay on SK-MEL-5, with DMS-273, with XF498 and in the assay with SN12C was > 100 µM (inactive) in each case. Besides, the figures for the GI50 with KM-20L2, in the assay with A498 and in the assay on Malme-3M were > 100 µM (inactive), 8.59 µM (inactive) and > 100 µM (inactive), respectively.

In the case of `CCCCC#CS(=O)(=O)C(F)(F)F`, the GI50 is > 100 µM (inactive) in the assay with DLD-1; 47.3 µM (inactive) in the assay with NCI/ADR-RES; 37.2 µM (inactive) in the assay with DMS-114; > 100 µM (inactive) in the assay on HOP-18; > 100 µM (inactive) in the assay on SNB-78; 60.7 µM (inactive) in the assay on LOX IMVI. Also, the GI50 with COLO 205 was > 75.7 µM (inactive); in the assay on SK-MEL-5, 52.7 µM (inactive); in the assay on DMS-273 it was 48 µM (inactive); with XF498, 56.9 µM (inactive); in the assay on SN12C it was > 100 µM (inactive); with KM-20L2, 81.5 µM (inactive). In addition, the GI50 with A498 is 44.9 µM (inactive); in the assay with Malme-3M, > 100 µM (inactive).

For the molecule `CO[C@@]12[C@H](COC(N)=O)C3=C(C(=O)C(C)=C(N)C3=O)N1C[C@@H]1N[C@@H]12` [MITOMYCIN], the GI50 with DLD-1 was 2.8 µM (inactive); in the assay with TK-10 it was 4.86 µM (inactive); in the assay on NCI/ADR-RES, 4.74 µM (inactive); in the assay on HOP-18, 1.1 µM (active); in the assay on PC-3, 2.24 µM (inactive); with COLO 205, 1.02 µM (active). Moreover, the GI50 with DMS-273 is 0.104 µM (active); in the assay with BT-549, 1.75 µM (inactive); with KM-20L2, 1.3 µM (inactive); with A498, 0.714 µM (active); with Malme-3M, 0.796 µM (active).

Consider `COC(=O)C1=C(C)N2CCCOC2(C)C(C(=O)OC)C1c1cccc(Cl)c1` (stereo unspecified), for which the GI50 was 53 µM (inactive) in the assay with TK-10; 19.1 µM (inactive) in the assay with DMS-114; 20.6 µM (inactive) with M19-MEL; 17.3 µM (inactive) in the assay with COLO 205; > 100 µM (inactive) in the assay with SK-MEL-5; 24.4 µM (inactive) in the assay with KM-20L2. The GI50 in the assay on M14 is 20 µM (inactive); with ACHN, 28.2 µM (inactive).

Regarding `O=S(O)c1cc(Cl)c(O)c(Cl)c1`, the GI50 with DLD-1, in the assay with TK-10, in the assay with DMS-114, with SNB-78, with M19-MEL and in the assay on LOX IMVI was > 100 µM (inactive) throughout. The GI50 in the assay on XF498, in the assay on SN12C, in the assay with M14, with ACHN, in the assay on A498 and in the assay on Malme-3M was > 100 µM (inactive) in each case.

Turning to `COC(=O)c1nc(-c2ccc3c(n2)C(=O)C(=N)C(OC)=C3O)c(N)c(-c2ccc(OC)c(OC)c2O)c1C`, the GI50 in the assay with DLD-1 was 1.17 µM (inactive); in the assay on NCI/ADR-RES, 1.3 µM (inactive); in the assay with DMS-114, 0.415 µM (active); in the assay on HOP-18 it was 2.03 µM (inactive); with SNB-78, 2.35 µM (inactive); in the assay on M19-MEL it was 0.254 µM (active). Moreover, the GI50 with LOX IMVI is 0.29 µM (active); in the assay with COLO 205, 1.84 µM (inactive); in the assay with SK-MEL-5 it was 0.413 µM (active); with DMS-273, 0.303 µM (active); in the assay with XF498, 1.18 µM (inactive); with SN12C it was 1.16 µM (inactive). The GI50 in the assay with KM-20L2 was 2.24 µM (inactive); with A498, 1.61 µM (inactive); in the assay with Malme-3M, 0.524 µM (active).

What is called GI50 is the concentration giving 50% growth inhibition.
